Reference: US11229205B2, “Herbicidally active pyridyl-/pyrimidyl-pyrazine derivatives” (Syngenta Participations AG, priority 2017, dated 2022)

Tests used:
Format in all cases: in vivo
Zea Mays (ZEAMX) [1] = assay: Pre-emergence herbicidal activity (B1); conditions: Test 1a; pre-emergence application; rate 1000 g/ha; evaluated after 13 days; score 0-5
Description: (§1) Seeds of a variety of test species were sown in standard soil in pots: Triticum aestivium (TRZAW), Avena fatua (AVEFA), Alopecurus myosuroides (ALOMY), Echinochloa crus-galli (ECHCG), Lolium perenne (LOLPE), Zea Mays (ZEAMX), Abutilon theophrasti (ABUTH), Amaranthus retroflexus (AMARE) and Setaria faberi (SETFA). […] The test plants were then grown in a glasshouse under controlled conditions (at 24/16° C., day/night; 14 hours light; 65% humidity) and watered twice daily. After 13 days, the test was evaluated (5=total damage to plant; 0=no damage to plant).

[2] = system: Echinochloa crus-galli (ECHCG); assay: Pre-emergence herbicidal activity (B1); conditions: Test 1a; pre-emergence application; rate 1000 g/ha; evaluated after 13 days; score 0-5
Description: as §1

[3] = system: Amaranthus retroflexus (AMARE); assay: Pre-emergence herbicidal activity (B1); conditions: Test 1a; pre-emergence application; rate 1000 g/ha; evaluated after 13 days; score 0-5
Description: as §1

[4] = system: Abutilon theophrasti (ABUTH); assay: Pre-emergence herbicidal activity (B1); conditions: Test 1a; pre-emergence application; rate 1000 g/ha; evaluated after 13 days; score 0-5
Description: as §1

Setaria faberi (SETFA) [5] = assay: Pre-emergence herbicidal activity (B1); conditions: Test 1a; pre-emergence application; rate 1000 g/ha; evaluated after 13 days; score 0-5
Description: as §1

Lolium perenne (LOLPE) [6] = assay: Pre-emergence herbicidal activity (B1); conditions: Test 1a; pre-emergence application; rate 1000 g/ha; evaluated after 13 days; score 0-5
Description: as §1

Zea Mays (ZEAMX) [7] = assay: Post-emergence herbicidal activity (B2); conditions: Test B2a; post-emergence application; rate 1000 g/ha; evaluated after 13 days; score 0-5
Description: as §1

[8] = system: Echinochloa crus-galli (ECHCG); assay: Post-emergence herbicidal activity (B2); conditions: Test B2a; post-emergence application; rate 1000 g/ha; evaluated after 13 days; score 0-5
Description: as §1

[9] = system: Amaranthus retroflexus (AMARE); assay: Post-emergence herbicidal activity (B2); conditions: Test B2a; post-emergence application; rate 1000 g/ha; evaluated after 13 days; score 0-5
Description: as §1

[10] = system: Abutilon theophrasti (ABUTH); assay: Post-emergence herbicidal activity (B2); conditions: Test B2a; post-emergence application; rate 1000 g/ha; evaluated after 13 days; score 0-5
Description: as §1

Setaria faberi (SETFA) [11] = assay: Post-emergence herbicidal activity (B2); conditions: Test B2a; post-emergence application; rate 1000 g/ha; evaluated after 13 days; score 0-5
Description: as §1

Lolium perenne (LOLPE) [12] = assay: Post-emergence herbicidal activity (B2); conditions: Test B2a; post-emergence application; rate 1000 g/ha; evaluated after 13 days; score 0-5
Description: as §1

Compound: Cc1nc(-c2cncnc2)cnc1N [Compound G1]
- damage to plant, ZEAMX (Zea Mays (ZEAMX) [1]): 1
- damage to plant, ECHCG [2]: 1
- damage to plant, AMARE [3]: 0
- damage to plant, ABUTH [4]: 0
- damage to plant, SETFA (Setaria faberi (SETFA) [5]): 2
- damage to plant, LOLPE (Lolium perenne (LOLPE) [6]): 0
- damage to plant, ZEAMX (Zea Mays (ZEAMX) [7]): 2
- damage to plant, ECHCG [8]: 1
- damage to plant, AMARE [9]: 2
- damage to plant, ABUTH [10]: 1
- damage to plant, SETFA (Setaria faberi (SETFA) [11]): 2
- damage to plant, LOLPE (Lolium perenne (LOLPE) [12]): 1
